In patent US20040235939A1, “Synthesis of peloruside a and analogs thereof for use as antitumor agents” (priority 2003, published 2004):

Columns and labels:
NCI-H2887 = experiment: SRB cytotoxicity assay, NCI-H2887; type: cell-based, human
Procedure: (§1) Cells were treated on Days 1, 3, 5, and 7 with 5 μL of media, vehicle, or drug. Peloruside A was resuspended in 0.1% DMSO and added to wells to a final concentration of 0.01, 0.1, 1, 10 or 100 nM. Taxol® (Sigma-Aldrich) was resuspended in 0.1% ethanol and added to cells to a final concentration of 0.1, 1, 10, 100, or 1000 nM.
(§2) The amount of surviving cells was measured using the sulforhodamine B (SRB) assay as previously described (Skehan et al., New colorimetric cytotoxicity assay for anticancer-drug screening. J. Natl. Cancer Inst., 1990. 82(13): p. 1107-12). Cells were fixed on Days 5, 7, and 9 (representing 4, 6, and 8 days of exposure to drug or control, respectively) with 50% (w/v) trichloroacetic acid for 1 hour at 4° C., rinsed thoroughly with water, and dried overnight. The dried cells were stained with 4% sulforhodamine B in 1% acetic acid, rinsed thoroughly and dried overnight. The bound dye was resuspended in 10 mM Tris and the absorbance was read at 492 nm. Percent growth inhibition (GI) was calculated as follows: %GI=(1−(absorbance sample/absorbance vehicle))×100. The absorbance value for each drug concentration and control represents the average of 6 replicates. The %GI was plotted against the log[drug] to generate the growth curves. The concentration of drug required to inhibit growth by 50% (GI50) was calculated for each time point.

CAKI-1 = experiment: SRB cytotoxicity assay, CAKI-1; type: cell-based; details: Homo sapiens
Procedure: as §1, §2

PC-3 = experiment: SRB cytotoxicity assay, PC-3; type: cell-based; details: Homo sapiens
Procedure: as §1, §2

ptx10 cells = experiment: Cell Titer-Glo cell viability, Taxol-resistant ptx10 cells; details: Homo sapiens, PTX10, 48 h, read-out: cell viability
Procedure: (§3) These cell lines have specific amino acid mutations in tubulin that prevent Taxol®-binding. […] Synthetic (+)-Peloruside A was used for the present example.
(§4) 1A9, ptx10 and ptx22 cells were plated in 96-well plates to approximately 50% confluency. On the next day, Taxol® or Peloruside A was added to each well and incubated for 48 hours. A final concentration of 1, 2, 3, 4, 5, 8, 10, 20, 30, 50, 100, 300, 500, or 1000 nM of Taxol® was used. A final concentration of 10, 20, 30, 40, 50 or 70 nM of Peloruside A was used. Cell viability was measured using the Cell Titer-Glo Luminescent Cell Viability Assay (Promega). FIGS. 80-82 show bar graphs of cell viability at various concentrations of Peloruside A and Taxol®.

ptx22 cells = experiment: Cell Titer-Glo cell viability, Taxol-resistant ptx22 cells; details: Homo sapiens, 48 h, read-out: cell viability
Procedure: as §3, §4

HCT-15 = experiment: SRB cytotoxicity assay, HCT-15; type: cell-based; details: Homo sapiens
Procedure: as §1, §2

NCI-H23 = experiment: SRB cytotoxicity assay, NCI-H23; type: cell-based; details: Homo sapiens
Procedure: as §1, §2

Hep-G2 = experiment: SRB cytotoxicity assay, Hep-G2; type: cell-based; details: Homo sapiens
Procedure: as §1, §2

LoVo = experiment: SRB cytotoxicity assay, LoVo; type: cell-based; details: Homo sapiens
Procedure: as §1, §2

SK-HEP-1 = experiment: SRB cytotoxicity assay, SK-HEP-1; type: cell-based; details: Homo sapiens
Procedure: as §1, §2

MDA-MB-231 = experiment: SRB cytotoxicity assay, MDA-MB-231; type: cell-based; details: Homo sapiens
Procedure: as §1, §2

SK-OV-3 = experiment: SRB cytotoxicity assay, SK-OV-3; type: cell-based; details: Homo sapiens
Procedure: as §1, §2

BT-549 = experiment: SRB cytotoxicity assay, BT-549; type: cell-based; details: Homo sapiens
Procedure: as §1, §2

NCI-H460 = experiment: SRB cytotoxicity assay, NCI-H460; type: cell-based; details: Homo sapiens
Procedure: as §1, §2

HCT-116 = experiment: SRB cytotoxicity assay, HCT-116; type: cell-based; details: Homo sapiens
Procedure: as §1, §2

[1] = system: BSC-1 (Monkey Kidney epithelial) cells; experiment: Immunofluorescent staining of tubulin in BSC-1 cells; type: cell-based; details: 200 nM of Taxol® or 50 nM of Peloruside A
NCI-H1395 = experiment: SRB cytotoxicity assay, NCI-H1395; type: cell-based, human; details: Homo sapiens
Procedure: as §1, §2

DU-145 = experiment: SRB cytotoxicity assay, DU-145; type: cell-based; details: Homo sapiens
Procedure: as §1, §2

Capan-1 = experiment: SRB cytotoxicity assay, Capan-1; type: cell-based; details: Homo sapiens
Procedure: as §1, §2

SK-MEL-28 = experiment: SRB cytotoxicity assay, SK-MEL-28; type: cell-based; details: Homo sapiens
Procedure: as §1, §2

A498 = experiment: SRB cytotoxicity assay, A498; type: cell-based; details: Homo sapiens
Procedure: as §1, §2

With `CC[C@H](/C=C(/C)C1C[C@@H](OC)CC(O)C(C)(C)C2(O)OC(C[C@@H](OC)C2O)C[C@@H](OC)[C@H](O)C(=O)O1)CO` (single isomer, unassigned; (+)) [Peloruside A, (+)-Peloruside A] the GI50 (NCI-H2887; Homo sapiens, NCI-H2887, 144 h) was 674 nM, the GI50 (NCI-H2887; Homo sapiens, NCI-H2887, 192 h) was 9.15 nM and the GI50 (NCI-H2887; NCl-H2887, Lung, 4 Days) was 4 Days: Resistant. For the same compound, the GI50 (CAKI-1; CAKI-1, 96 h) was 12.5 nM, the GI50 (CAKI-1; CAKI-1, 144 h) was 3.97 nM and the GI50 (CAKI-1; CAKI-1, 192 h) was 3 nM. It also gave a GI50 (PC-3; PC-3, 96 h) of 11.6 nM, a GI50 (PC-3; PC-3, 144 h) of 6.5 nM and a GI50 (PC-3; PC-3, 192 h) of 2.46 nM. For the same compound, the viability at 0.03 µM (ptx10 cells) was roughly 50%, the viability at 0.03 µM (ptx22 cells) was roughly 50% and the GI50 (HCT-15; HCT-15, 96 h) was 14.3 nM. It also gave a GI50 (HCT-15; HCT-15, 144 h) of 9.23 nM, a GI50 (HCT-15; HCT-15, 192 h) of 11.7 nM and a GI50 (NCI-H23; NCI-H23, 144 h) of 7.11 nM. The GI50 (NCI-H23; NCI-H23, 192 h) was 4.78 nM, the GI50 (Hep-G2; HepG2, 96 h) was 18 nM and the GI50 (Hep-G2; HepG2, 144 h) was 1.58 nM. For the same compound, the GI50 (Hep-G2; HepG2, 192 h) was 0.98 nM, the GI50 (LoVo; 96 h) was 11.8 nM and the GI50 (LoVo; 144 h) was 7.34 nM. The GI50 (LoVo; 192 h) was 6.14 nM, the GI50 (SK-HEP-1; SK-HEP1, 96 h) was 39.3 nM and the GI50 (SK-HEP-1; SK-HEP1, 144 h) was 11.2 nM. For the same compound, the GI50 (SK-HEP-1; SK-HEP1, 192 h) was 1.45 nM, the GI50 (MDA-MB-231; MDA-MB-231, 96 h) was 4.02 nM and the GI50 (MDA-MB-231; MDA-MB-231, 144 h) was 3.4 nM. The GI50 (MDA-MB-231; MDA-MB-231, 192 h) was 1.53 nM, the GI50 (SK-OV-3; SK-OV-3, 96 h) was 8.81 nM and the GI50 (SK-OV-3; SK-OV-3, 144 h) was 8.51 nM. For the same compound, the GI50 (SK-OV-3; SK-OV-3, 192 h) was 5.77 nM, the GI50 (BT-549; BT-549, 96 h) was 38.8 nM and the GI50 (BT-549; BT-549, 144 h) was 4.28 nM. For the same compound, the GI50 (BT-549; BT-549, 192 h) was 5.73 nM, the GI50 (NCI-H460; NCI-H460, 96 h) was 8.27 nM and the GI50 (NCI-H460; NCI-H460, 144 h) was 5.38 nM. For the same compound, the GI50 (NCI-H460; NCI-H460, 192 h) was 4.77 nM, the GI50 (HCT-116; HCT-116, 96 h) was 3.64 nM and the GI50 (HCT-116; HCT-116, 144 h) was 5.81 nM. The GI50 (HCT-116; HCT-116, 192 h) was 1.79 nM, the “formation of a bipolar spindle” value [1] was “inhibits the formation of a bipolar spindle” and the GI50 (NCI-H1395; NCI-H1395, 96 h) was 1010 nM. The GI50 (NCI-H1395; NCI-H1395, 144 h) was 84.1 nM, the GI50 (NCI-H1395; NCI-H1395, 192 h) was 15.2 nM and the GI50 (DU-145; DU-145, 96 h) was 9.2 nM. For the same compound, the GI50 (DU-145; DU-145, 144 h) was 3.25 nM, the GI50 (DU-145; DU-145, 192 h) was 2.94 nM and the GI50 (Capan-1; CAPAN-1, 96 h) was 29.8 nM. The GI50 (Capan-1; CAPAN-1, 144 h) was 6.8 nM, the GI50 (Capan-1; CAPAN-1, 192 h) was 5.21 nM and the GI50 (SK-MEL-28; SK-MEL-28, 96 h) was 23.3 nM. For the same compound, the GI50 (SK-MEL-28; SK-MEL-28, 144 h) was 7.29 nM, the GI50 (SK-MEL-28; SK-MEL-28, 192 h) was 2.07 nM and the GI50 (A498; A498, 96 h) was 7.3 nM. The GI50 (A498; A498, 144 h) was 1.9 nM and the GI50 (A498; A498, 192 h) was 2.75 nM.
